In DBAASP:
Converted amounts (≈) assume the structure as drawn. Values belong to the compound of their own block, whether it stands above or below them.

Tests used:
Experiment in all cases: ≥ marks a high value that may be exact or a test limit, other limits are often not marked, values filed in µg/mL are converted to µM
[1] = test system: Pseudomonas aeruginosa H1001
Escherichia coli BW25113 = test system: Escherichia coli BW25113
Escherichia coli J2210 = test system: Escherichia coli J2210
Escherichia coli JJ2489 = test system: Escherichia coli JJ2489
Escherichia coli JW0013 = test system: Escherichia coli JW0013
[2] = test system: Escherichia coli JW0368 ΔsbmA
[3] = test system: Escherichia coli JW2778 ΔygdD
Escherichia coli MC1041 = test system: Escherichia coli MC1041
[4] = test system: Salmonella enterica subsp. enterica serovar Enteritidis MH91989
[5] = test system: Salmonella typhimurium SL1344
Acinetobacter baumannii = test system: Acinetobacter baumannii
[6] = test system: Bacillus cereus CGMCC 1.932
[7] = test system: Bacillus subtilis CMCC 63501
[8] = test system: Enterococcus faecalis ATCC 29212
Escherichia coli 078 = test system: Escherichia coli 078
Escherichia coli K88 = test system: Escherichia coli K88
Escherichia coli K99 = test system: Escherichia coli K99
Escherichia coli UB1005 = test system: Escherichia coli UB1005
[9] = test system: Listeria monocytogenes CGMCC 1.1075
[10] = test system: Pseudomonas aeruginosa ATCC 27853
[11] = test system: Pseudomonas aeruginosa PAO1
[12] = test system: Salmonella enterica subsp. enterica serovar Pullorum ATCC 7913
[13] = test system: Salmonella enterica subsp. enterica serovar Typhimurium ATCC 14028
[14] = test system: Salmonella typhimurium ATCC 7731
[15] = test system: Staphylococcus aureus ATCC 25923
[16] = test system: Staphylococcus aureus ATCC 43300
[17] = test system: Staphylococcus epidermidis ATCC 12228
[18] = test system: Bacillus megaterium ATCC 10778
Candida albicans MDM8 = test system: Candida albicans MDM8
[19] = test system: Candida tropicalis IOC 4560
[20] = test system: Enterobacter cloacae beta-12
Escherichia coli SBS 363 = test system: Escherichia coli SBS 363
Micrococcus luteus A270 = test system: Micrococcus luteus A270
[21] = test system: Serratia marcescens ATCC 4112
[22] = test system: Staphylococcus aureus ATCC 29213

MIC [1]: 0.0575 µM (≈ 0.14 µg/mL)
Structure (SMILES): CC[C@H](C)[C@H](NC(=O)[C@H](CCCN=C(N)N)NC(=O)[C@H](CCCN=C(N)N)NC(=O)[C@@H]1CCCN1C(=O)[C@@H]1CCCN1C(=O)[C@H](CCCN=C(N)N)NC(=O)[C@@H]1CCCN1C(=O)[C@H](CCCN=C(N)N)NC(=O)[C@@H]1CCCN1C(=O)[C@H](CC(C)C)NC(=O)[C@H](Cc1ccc(O)cc1)NC(=O)[C@@H]1CCCN1C(=O)[C@@H]1CCCN1C(=O)[C@H](CCCCN)NC(=O)[C@H](CC(=O)O)NC(=O)[C@@H](N)C(C)C)C(=O)N[C@@H](Cc1ccc(O)cc1)C(=O)N[C@@H](CS)C(=O)N[C@@H](CCCN=C(N)N)C(=O)NCC(=O)O [VDKPPYLPRPRPPRRIYCRG]

MIC (Escherichia coli BW25113): 0.096 µM (≈ 0.203 µg/mL)
MIC (Escherichia coli J2210): 0.267 µM (≈ 0.565 µg/mL)
MIC (Escherichia coli JJ2489): 0.252 µM (≈ 0.533 µg/mL)
MIC (Escherichia coli JW0013): 0.096 µM (≈ 0.203 µg/mL)
MIC [2]: 0.192 µM (≈ 0.406 µg/mL)
MIC [3]: 0.192 µM (≈ 0.406 µg/mL)
MIC (Escherichia coli MC1041): 0.192 µM (≈ 0.406 µg/mL)
MIC [4]: 0.133 µM (≈ 0.281 µg/mL)
MIC [5]: 0.192 µM (≈ 0.406 µg/mL)
Structure (SMILES): CC(C)C[C@H](NC(=O)[C@H](CCCN=C(N)N)NC(=O)[C@@H]1CCCN1C(=O)[C@H](CCCN=C(N)N)NC(=O)[C@@H]1CCCN1C(=O)[C@@H]1CCCN1C(=O)[C@H](CCCN=C(N)N)NC(=O)[C@@H]1CCCN1C(=O)[C@H](CCC(N)=O)NC(=O)[C@@H]1CCCN1C(=O)[C@H](CCCCN)NC(=O)[C@H](Cc1ccc(O)cc1)NC(=O)[C@@H](NC(=O)[C@@H]1CCCN1C(=O)[C@H](CCCCN)NC(=O)[C@H](CC(N)=O)NC(=O)[C@H](CC(N)=O)NC(=O)CN)C(C)C)C(=O)O [GNNKPVYKPQPRPPRPRL]

MIC (Acinetobacter baumannii): 2 µM (≈ 3.34 µg/mL)
MIC [6]: 16 µM (≈ 26.8 µg/mL)
MIC [7]: 4 µM (≈ 6.69 µg/mL)
MIC [8]: 4 µM (≈ 6.69 µg/mL)
MIC (Escherichia coli 078): 4 µM (≈ 6.69 µg/mL)
MIC (Escherichia coli K88): 4 µM (≈ 6.69 µg/mL)
MIC (Escherichia coli K99): 8 µM (≈ 13.4 µg/mL)
MIC (Escherichia coli UB1005): 8 µM (≈ 13.4 µg/mL)
MIC [9]: 1 µM (≈ 1.67 µg/mL)
MIC [10]: 16 µM (≈ 26.8 µg/mL)
MIC [11]: 16 µM (≈ 26.8 µg/mL)
MIC [12]: 4 µM (≈ 6.69 µg/mL)
MIC [13]: 8 µM (≈ 13.4 µg/mL)
MIC [14]: 8 µM (≈ 13.4 µg/mL)
MIC [15]: 4 µM (≈ 6.69 µg/mL)
MIC [16]: 4 µM (≈ 6.69 µg/mL)
MIC [17]: 4 µM (≈ 6.69 µg/mL)
Structure (SMILES): CC(C)[C@H](NC(=O)[C@H](CCCN=C(N)N)NC(=O)[C@H](Cc1c[nH]c2ccccc12)NC(=O)[C@H](CCCN=C(N)N)NC(=O)[C@H](Cc1c[nH]c2ccccc12)NC(=O)[C@H](Cc1c[nH]c2ccccc12)NC(=O)[C@H](Cc1c[nH]c2ccccc12)NC(=O)[C@H](CCCN=C(N)N)NC(=O)[C@H](Cc1c[nH]c2ccccc12)NC(=O)[C@@H](N)CCCN=C(N)N)C(N)=O [RWRWWWRWRV]

MIC (Acinetobacter baumannii): 2 µM (≈ 3.49 µg/mL)
MIC [6]: 8 µM (≈ 13.9 µg/mL)
MIC [7]: 4 µM (≈ 6.97 µg/mL)
MIC [8]: 2 µM (≈ 3.49 µg/mL)
MIC (Escherichia coli 078): 4 µM (≈ 6.97 µg/mL)
MIC (Escherichia coli K88): 4 µM (≈ 6.97 µg/mL)
MIC (Escherichia coli K99): 8 µM (≈ 13.9 µg/mL)
MIC (Escherichia coli UB1005): 8 µM (≈ 13.9 µg/mL)
MIC [9]: 1 µM (≈ 1.74 µg/mL)
MIC [10]: 8 µM (≈ 13.9 µg/mL)
MIC [11]: 8 µM (≈ 13.9 µg/mL)
MIC [12]: 2 µM (≈ 3.49 µg/mL)
MIC [13]: 4 µM (≈ 6.97 µg/mL)
MIC [14]: 16 µM (≈ 27.9 µg/mL)
MIC [15]: 2 µM (≈ 3.49 µg/mL)
MIC [16]: 4 µM (≈ 6.97 µg/mL)
MIC [17]: 4 µM (≈ 6.97 µg/mL)
Structure (SMILES): CC[C@H](C)[C@H](NC(=O)[C@H](CCCN=C(N)N)NC(=O)[C@H](Cc1c[nH]c2ccccc12)NC(=O)[C@H](CCCN=C(N)N)NC(=O)[C@H](Cc1c[nH]c2ccccc12)NC(=O)[C@H](Cc1c[nH]c2ccccc12)NC(=O)[C@H](Cc1c[nH]c2ccccc12)NC(=O)[C@H](CCCN=C(N)N)NC(=O)[C@H](Cc1c[nH]c2ccccc12)NC(=O)[C@H](CCCN=C(N)N)NC(=O)CN)C(N)=O [GRWRWWWRWRI]

MIC [18]: 0.4 µM (≈ 0.631 µg/mL)
MIC (Candida albicans MDM8): 1.6 µM (≈ 2.52 µg/mL)
MIC [19]: 0.8 µM (≈ 1.26 µg/mL)
MIC [20]: 3.1 µM (≈ 4.89 µg/mL)
MIC (Escherichia coli SBS 363): 1.6 µM (≈ 2.52 µg/mL)
MIC (Micrococcus luteus A270): 0.4 µM (≈ 0.631 µg/mL)
MIC [21]: 0.1 µM (≈ 0.158 µg/mL)
MIC [22]: 0.8 µM (≈ 1.26 µg/mL)
MIC [17]: 3.1 µM (≈ 4.89 µg/mL)
Structure (SMILES): CC(C)C[C@H](NC(=O)[C@H](C)NC(=O)[C@H](CCCCN)NC(=O)[C@H](CC(C)C)NC(=O)[C@@H](N)Cc1ccccc1)C(=O)N[C@@H](Cc1c[nH]c2ccccc12)C(=O)N[C@@H](CCCCN)C(=O)N[C@H](C(=O)N[C@@H](C)C(=O)N[C@@H](CCCCN)C(=O)N[C@@H](CCCCN)C(=O)N[C@H](C(=O)N[C@@H](Cc1ccccc1)C(N)=O)C(C)C)C(C)C [FLKALWKVAKKVF]

MIC (Escherichia coli BW25113): 0.067 µM (≈ 0.144 µg/mL)
MIC (Escherichia coli J2210): 0.252 µM (≈ 0.54 µg/mL)
MIC (Escherichia coli JJ2489): 0.133 µM (≈ 0.285 µg/mL)
MIC (Escherichia coli JW0013): 0.062 µM (≈ 0.133 µg/mL)
MIC [2]: 0.096 µM (≈ 0.206 µg/mL)
MIC [3]: 0.133 µM (≈ 0.285 µg/mL)
MIC (Escherichia coli MC1041): 0.133 µM (≈ 0.285 µg/mL)
MIC [4]: 0.096 µM (≈ 0.206 µg/mL)
MIC [5]: 0.192 µM (≈ 0.411 µg/mL)
Structure (SMILES): CC(C)C[C@H](NC(=O)[C@H](CCCN=C(N)N)NC(=O)[C@@H]1CCCN1C(=O)[C@H](CCCN=C(N)N)NC(=O)[C@@H]1CCCN1C(=O)[C@@H]1CCCN1C(=O)[C@H](CCCN=C(N)N)NC(=O)[C@@H]1CCCN1C(=O)[C@H](CCC(N)=O)NC(=O)[C@@H]1CCCN1C(=O)[C@H](CCCCN)NC(=O)[C@H](Cc1ccc(O)cc1)NC(=O)[C@@H](NC(=O)[C@@H]1CCCN1C(=O)[C@H](CCCN=C(N)N)NC(=O)[C@H](CC(N)=O)NC(=O)[C@H](CC(N)=O)NC(=O)CN)C(C)C)C(=O)O [GNNRPVYKPQPRPPRPRL]

MIC [1]: 0.107 µM (≈ 0.26 µg/mL)
Structure (SMILES): CC[C@H](C)[C@H](NC(=O)[C@H](CCCN=C(N)N)NC(=O)[C@H](CCCN=C(N)N)NC(=O)[C@@H]1CCCN1C(=O)[C@@H]1CCCN1C(=O)[C@H](CCCN=C(N)N)NC(=O)[C@@H]1CCCN1C(=O)[C@H](CCCN=C(N)N)NC(=O)[C@@H]1CCCN1C(=O)[C@H](CC(C)C)NC(=O)[C@H](Cc1ccc(O)cc1)NC(=O)[C@@H]1CCCN1C(=O)[C@@H]1CCCN1C(=O)[C@H](CCCCN)NC(=O)[C@H](CC(=O)O)NC(=O)[C@@H](N)C(C)C)C(=O)N[C@@H](Cc1ccc(O)cc1)C(=O)N[C@@H](CC(N)=O)C(=O)N[C@@H](CCCCN)C(=O)NCC(=O)O [VDKPPYLPRPRPPRRIYNKG]

MIC [1]: 0.0878 µM (≈ 0.22 µg/mL)
Structure (SMILES): CC[C@H](C)[C@H](NC(=O)[C@H](CCCN=C(N)N)NC(=O)[C@H](CCCN=C(N)N)NC(=O)[C@@H]1CCCN1C(=O)[C@H](CCCN=C(N)N)NC(=O)[C@H](CCCN=C(N)N)NC(=O)[C@@H]1CCCN1C(=O)[C@H](CCCN=C(N)N)NC(=O)[C@@H]1CCCN1C(=O)[C@H](CC(C)C)NC(=O)[C@H](Cc1ccc(O)cc1)NC(=O)[C@@H]1CCCN1C(=O)[C@@H]1CCCN1C(=O)[C@H](CCCCN)NC(=O)[C@H](CC(=O)O)NC(=O)[C@@H](N)C(C)C)C(=O)N[C@@H](Cc1ccc(O)cc1)C(=O)N[C@@H](CC(N)=O)C(=O)N[C@@H](CCCN=C(N)N)C(=O)NCC(=O)O [VDKPPYLPRPRRPRRIYNRG]
